For eleven molecules, IC50 results are on record in patent US7423177B2, “Carboxamide derivatives as therapeutic agents” (TransTech Pharma, Inc., priority 2001, dated 2008).

Test [1] has as its target T1, RAGE (sRAGE) binding to S100b (Homo sapiens, UniProt Q15109).
T1 construct: extracellular domain can be isolated by proteolysis of RAGE to generate soluble RAGE (sRAGE) comprised of the V and C domains
The experiment in a line: ELISA assay: inhibition of sRAGE binding to plate-bound S100b. The settings on record: ligand S100b coated on plate, concentration at which 50% signal has been inhibited, read-out: ELISA Assay IC50 (μM) S-100b. The method, then:
(§1) This method is also described and claimed in co-pending U.S. Ser. No. 09/799,152 filed Mar. 5, 2001.
(§2) S100b, β-amyloid and CML (500 ng/100 μL/well) in 100 mM sodium bicarbonate/sodium carbonate buffer (pH 9.8) is loaded onto the wells of a NUNC Maxisorp flat bottom 96 -well microtitre plate. The plate is incubated at 4° C. overnight. The wells are aspirated and treated with 50 mM imidazole buffer saline (pH 7.2) (with 1 mM CaCl2/MgCl2) containing 1% bovine serum albumin (BSA) (300 μL/well) for two h at 37° C.
(§3) Test compounds are dissolved in nanopure water (concentration: 10-100 μM). DMSO may be used as co-solvent. 25 μL of test compound solution in 2% DMSO is added, along with 75 μL SRAGE (4.0×10^−4 mg/mL FAC) to each well and samples are incubated for 1 h at 37° C. The wells are washed 3 times with 155 mM NaCl pH 7.2 buffer saline and are soaked 10 seconds between each wash.
(§4) Non-Radioactive Binding is Performed by Adding:
(§5) 10 μL Biotinylated goat F(ab′)2 Anti-mouse IgG. (8.0×10^−4 mg/mL, FAC)
(§6) 10 μL Alk-phos-Sterptavidin (3×10^−3 mg/mL FAC)
(§7) 10 μL Polyclonal antibody for sRAGE (FAC 6.0×10^−3 mg/mL)
(§8) to 5 mL 50 mM imidazole buffer saline (pH 7.2) containing 0.2% bovine serum albumin and 1 mM […]. The mixture is incubated for 30 minutes at 37° C. 100 μL complex is added to each well and incubation is allowed to proceed at rt for 1 h. Wells are washed 3 times with wash buffer and soaked 10 s between each wash. 100 μL 1 mg/mL (pNPP) in 1 M diethanolamine (pH adjusted to 9.8 with HCl) is added. Color is allowed to develop in the dark for 1 to 2 h at rt. The reaction is quenched with 10 μL of stop solution (0.5 N NaOH in 50% ethanol) and the absorbance is measured spectrophotometrically with a microplate reader at 405 nm.
For orientation: In an ELISA, binding on a coated surface is turned into a signal by an enzyme label.

For test [2], the target named is T2, RAGE (sRAGE) binding to β-amyloid (Homo sapiens, UniProt Q15109).
T2 construct: extracellular domain can be isolated by proteolysis of RAGE to generate soluble RAGE (sRAGE) comprised of the V and C domains
In words: ELISA assay: inhibition of sRAGE binding to plate-bound β-amyloid. The settings on record: ligand β-amyloid coated on plate, concentration at which 50% signal has been inhibited. The method, then:
as §1, §2, §3, §4, §5, §6, §7, §8

Test [3] deals with T3, RAGE (sRAGE) binding to Carboxymethyl Lysine (CML) (Homo sapiens, UniProt Q15109).
T3 construct: extracellular domain can be isolated by proteolysis of RAGE to generate soluble RAGE (sRAGE) comprised of the V and C domains
In words: ELISA assay: inhibition of sRAGE binding to plate-bound CML. As to conditions: ligand CML coated on plate, concentration at which 50% signal has been inhibited. As to the method:
as §1, §2, §3, §4, §5, §6, §7, §8

Counter-ions that a name gives are not always drawn.

As a reminder, the IC50 is the concentration at which inhibition is half-maximal.

T2 sequence (Q15109 23-342 limits assumed): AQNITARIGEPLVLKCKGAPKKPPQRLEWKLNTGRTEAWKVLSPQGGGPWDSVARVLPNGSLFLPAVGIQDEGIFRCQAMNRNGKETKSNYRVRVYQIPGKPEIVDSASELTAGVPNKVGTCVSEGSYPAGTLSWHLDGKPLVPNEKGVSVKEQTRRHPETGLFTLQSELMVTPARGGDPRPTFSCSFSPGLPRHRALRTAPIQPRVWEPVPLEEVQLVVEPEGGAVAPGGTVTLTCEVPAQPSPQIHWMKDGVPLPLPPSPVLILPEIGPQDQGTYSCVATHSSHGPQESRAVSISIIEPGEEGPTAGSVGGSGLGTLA
T3 sequence (Q15109 23-342 limits assumed): as above
T1 sequence (Q15109 23-342 limits assumed): as above

As to `CCN(CC)CCCOc1ccc(NC(=O)CCc2ccc(OCc3ccccc3)cc2)c(OCCCN(CC)CC)c1` [Example 1, 3-(4-Benzyloxyphenyl)propionic Acid 2,4-Di-(3-Diethylamino-1-propoxy)aniline Amide], the IC50 in test [1] was in the range of 1 to 5 µM.

As for `CCN(CC)CCCOc1ccc(NC(=O)CC(NC(=O)OCC2c3ccccc3-c3ccccc32)c2cccc(OC(C)(C)C)c2)c(OCCCN(CC)CC)c1` (stereo not drawn) [Example 2, 3-(3-Tert-butoxyphenyl)-3-(9-fluorenylmethoxycarbonylamino)propionic Acid 2,4-Di-(3-diethylaminopropoxy)aniline Amide], the IC50 in test [2] is 1 to 5 µM; in test [3], 0.5 to 1 µM; in test [1] it was less than 0.5 µM.

As for `CCN(CC)CCCOc1ccc(NC(=O)CC(N)c2cccc(OC(C)(C)C)c2)c(OCCCN(CC)CC)c1` (stereo not drawn) [Example 3, 3-(3-Tert-butoxyphenyl)-3-aminopropionic Acid 2,4-Di-(3-diethylaminopropoxy)aniline Amide], the IC50 in test [2], in test [3] and in test [1] was 1 to 5 µM each time.

In the case of `CCCCOc1cc(C(=O)OCCN(CC)CC)ccc1NC(=O)C(N)CC1CCOCC1` (stereo not drawn) [Example 4, 3-(4-Tetrahydropyranyl)-2-aminopropionic Acid 4-Diethylaminoethoxycarbonyl-2-butoxyaniline Amide Dihydrochloride], the IC50 in test [1] fell in the range of 10 to 20 µM.

For `CCN(CC)CCCOc1ccc(NC(=O)[C@@H]2C[C@@H](OC(C)(C)C)CN2)c(OCCCN(CC)CC)c1` [Example 5, (2S, 4R)-4-Tert-Butoxypyrrolidine-2-carboxylic acid 2,4-Di(3-diethylamino-1-propoxy)aniline Amide], in test [1], the IC50 was 1 to 5 µM.

Turning to `CCCCOc1cc(C(=O)OCCN(CC)CC)ccc1NC(=O)[C@@H]1Cc2ccccc2CN1` [Example 6, (3S)-1,2,3,4-Tetrahydroisoquinoline-3-carboxylic Acid 4-Diethylaminoethoxycarbonyl-2-butoxyaniline Amide Dihydrochloride], the IC50 in test [2] fell in the range of 10 to 20 µM; in test [3], 5 to 10 µM; in test [1] it was 10 to 20 µM.

For `CCCCOc1cc(C(=O)OCCN(CC)CC)ccc1NC(=O)[C@@H](Cc1ccc(OCc2ccccc2)cc1)n1ccnc1` [Example 7, (R)-3-(4-Benzyloxyphenyl)-2-(1-imidazolyl)propionic Acid 4-Diethylaminoethoxycarbonyl-2-butoxyaniline Amide], the IC50 in test [2] was 1 to 5 µM; in test [3], 1 to 5 µM; in test [1], 0.5 to 1 µM.

In the case of `CCN(CC)CCCOc1ccc(NC(=O)CC(NC(=O)OCC2c3ccccc3-c3ccccc32)c2ccc(OC(C)(C)C)cc2)c(OCCCN(CC)CC)c1` (stereo not drawn) [Example 8, 3-(4-Tert-butoxyphenyl)-3-(9-fluorenylmethoxycarbonylamino)propionic Acid 2,4-Di-(3-diethylaminopropoxy)aniline Amide], the IC50 in test [2], in test [3] and in test [1] was 0.5 to 1 µM each time.

For the molecule `CCN(CC)CCCOc1ccc(NC(=O)CC(N)c2ccc(OC(C)(C)C)cc2)c(OCCCN(CC)CC)c1` (stereo not drawn) [Example 9, 3-amino-3-(4-tert-butoxyphenyl)propionic Acid 2,4-Di-(3-diethylaminopropoxy)anline Amide], the IC50 in test [2], in test [3] and in test [1] was 1 to 5 µM throughout.

Turning to `CCN(CC)CCCOc1ccc(NC(=O)CC(NC(=O)OCC2c3ccccc3-c3ccccc32)c2ccccc2OC(C)(C)C)c(OCCCN(CC)CC)c1` (stereo not drawn) [Example 10, 3-(9-fluorenylmethoxycarbonylamino)-3-(2-tert-butoxyphenyl)propionic Acid 2,4-Di-(3-diethylaminopropoxy)aniline Amide], the IC50 in test [2] was 1 to 5 µM; in test [3], 1 to 5 µM; in test [1], 0.5 to 1 µM.

For the molecule `CCN(CC)CCCOc1ccc(NC(=O)CC(N)c2ccccc2OC(C)(C)C)c(OCCCN(CC)CC)c1` (stereo not drawn) [Example 11, 3-amino-3-(2-tert-butoxyphenyl)propionic Acid 2,4-Di-(3-diethylaminopropoxy)aniline Amide], the IC50 in test [2], in test [3] and in test [1] was 1 to 5 µM throughout.
